“Also recorded” adds a separate entry of the source.
How the values were obtained:
MOG-EAE mouse model [1] = test: MOG-EAE mouse model, body weight and clinical score; assay type: in vivo
Description: This model recapitulates several of the features thought to occur in MS and is a widely used model of inflammatory demyelination.
On Day 0, EAE was induced using a MOG35–55/CFA Emulsion PTX Hooke Kit™ (Hooke Laboratories, Lawrence, MA). Briefly, per manufacturer’s instructions, each mouse was administered a total of 0.2 ml emulsion delivered via dorsal subcutaneous injections of 0.1 ml each to the mid-scapula and lower lumbar regions. Pertussis toxin was prepared per lot-specific instructions and administered via intraperitoneal injection of 0.1 ml (200 ng) on Day 0, 2 h post-MOG administration, and again on Day 1, 24 h post-MOG.
Each treatment group contained 12 mice, except for the age-matched control group which contained 8 mice.
Body weights and clinical scores were recorded daily.

MOG-EAE mouse model [2] = test: MOG-EAE mouse model, IBA1 immunostaining of spinal cord; assay type: in vivo; conditions: 3 mg/kg
Description: A lower lumbar segment of spinal cord was transferred from the EM fixative to 30% sucrose overnight and then sectioned using a sliding microtome. The resulting sections were stored in 30% sucrose in 0.1 M Phosphate Buffer pH 7.4 and stored at 4 °C. Free-floating spinal cord sections were rinsed with PBS, blocked with 5% normal goat serum in 0.1% Triton-X/PBS for 2 h, and subsequently incubated with antibodies against IBA1 (Life Technologies, Carlsbad, CA, 1:500) or CD3 (Abcam, Waltham, MA, 1:500) overnight at 4 °C. Sections were then washed 3 times with 0.1% triton-X/PBS and transferred to secondary antibody (1:500, Carlsbad, CA) in 0.1% Triton-X/PBS for 2 h at room temperature. Hoechst 33342 was diluted 1:2000 and added during the final wash step. Sections were stained with 1% Sudan Black in 70% ethanol, and washed 3 × 5 min in PBS. Stained sections were mounted onto slides and evaluated using a Nikon A1R confocal microscope and analyzed using Nikon NIS Elements software. Regions of interest (ROIs) were selected based on the largest contiguous lesion defined by Hoechst and Sudan Black co-staining. […] Cells were counted using the automatic General Analysis function in NIS Elements.
Supplemental Figure 9. […] Left, IBA1^+ area was quantified and normalized to Hoechst counts (* p = 0.0166, *** p=0.0002, mean ± SEM, ANOVA with Tukey’s, n>4). […]

[3] = system: human brain meningeal fibroblasts; test: LPA-induced activation of human meningeal fibroblasts (COL1+ area); assay type: cell-based; conditions: LPA stimulation, read-out: IC50 of inhibition of increase in COL1+ area
Description: Recent work from Dorrier et al., has implicated persistent fibrotic scarring in the CNS in the mouse EAE model and that the contributing cells were of meningeal origin. […] We cultured primary rat or human brain meningeal fibroblasts and applied 10 µM LPA to induce activation. Upon LPA stimulation, we saw a change in morphology that could be quantified as a change in collagen I (COL1^+) area.
Meningeal fibroblasts were obtained from IxCells (San Diego, CA) and plated at 5000 cells per well according to manufacturer's protocol. […] Cells were stained and imaged as described with rat meningeal fibroblasts.
Supplemental Figure 8. […] A. Rat primary meningeal fibroblasts were isolated and serum starved overnight. […] Cells were fixed and immunostained with a collagen 1a1 antibody (green) and counterstained with Hoechst (blue). […] Cells were fixed and immunostained with a collagen I antibody (green) and counterstained with Hoechst (blue). […] C. […] Collagen 1a1 (green), Hoechst (blue). Scale bar 50 µm. One-way ANOVA with Dunnett’s; * p<0.05, ** p<0.01, *** p<0.001, **** p<0.0001.

human LPA1 = biological target: T1, human LPA1 (Homo sapiens, UniProt Q92633); test: Functional calcium mobilization assay; assay type: cell-based; conditions: 24 h pre-incubation prior to LPA addition; read-out: Functional LPA1 Ca^+2 mobilization
T1 construct: expressed in transfected cells
T1 sequence (Q92633 whole entry): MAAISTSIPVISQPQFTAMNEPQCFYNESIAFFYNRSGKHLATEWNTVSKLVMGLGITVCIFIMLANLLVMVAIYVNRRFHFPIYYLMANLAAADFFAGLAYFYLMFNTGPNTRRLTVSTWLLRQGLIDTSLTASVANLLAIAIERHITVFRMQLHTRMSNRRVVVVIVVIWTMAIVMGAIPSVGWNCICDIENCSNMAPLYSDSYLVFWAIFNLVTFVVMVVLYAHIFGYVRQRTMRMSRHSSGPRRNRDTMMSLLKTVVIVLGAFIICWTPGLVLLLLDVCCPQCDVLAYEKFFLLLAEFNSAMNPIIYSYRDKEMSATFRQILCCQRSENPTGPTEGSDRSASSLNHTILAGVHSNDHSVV
Description: Intracellular calcium was monitored with Fluo-4 (Molecular Devices). Dye was made up in HBSS with 0.1% (w/v) BSA and 2.5 mM probenecid. Plates were read using a FlexStation 3 (Molecular Devices, Sunnyvale, CA). Calcium response was generated by the simultaneous addition of the EC80 of LPA.
On the day of assay, media was removed and replaced with dye and 3× fresh compound in HBSS−/− with 0.1% BSA and incubated for 1 h.
30-min assay: Antagonists were added to plates after dye loading was complete at a 3× concentration in HBSS−/− with 0.1% BSA and incubated for 30 min.

[4] = system: mouse cortical brain slices; test: Lysolecithin-treated mouse organotypic slice culture, Mbp transcript; assay type: cell-based; conditions: lysolecithin 18 h, then 3 days treatment; read-out: EC50 of Mbp transcript increase
Description: We next used an ex vivo organotypic brain slice culture to assess remyelination following a demyelinating insult. Mouse cortical brain slices were treated with lysolecithin, which induces acute demyelination through a non-specific lipid-based mechanism. […] After 3 additional days, the brain slices were processed for Mbp.
Evaluation of Mbp transcript in mouse brain slice culture: Brains were collected from P17 mice and placed into ice cold HBSS containing 20% FBS. Brains were bisected sagittally and 250 µm coronal slices made with a manual tissue chopper. Only slices anterior to the hippocampus displaying a discrete corpus callosum were used. Approximately 12 slices are obtained per animal. Slices were laid on a 30 mm MilliCell organotypic culture insert in a 6-well culture dish containing 1.1 mL growth media (DMEM, 25% HBSS-Ca^2+/-Mg^2+, 25% heat inactivated horse serum, glucose (5 g/l), 25 mM ascorbic acid and penicillin/streptomycin). Slices were cultured in vitro for 72 h with a 50% media change at 24 h. After 72 h, slices were demyelinated using media containing 0.5 mg/ml lysolecithin for 18 h. […] Slices were snap frozen and RNA extracted using the RNEasy Mini kit (Qiagen). […] Data was calculated using 2^−ΔΔCt , normalizing to 18S RNA and vehicle.

IC50 (human LPA1): 9.9 nM
EC50 [4]: 12.1 nM
SMILES: COc1ccc(NC(=O)N(c2ccccc2C(C)C)C2CCC(C(=O)O)CC2)c(OC(F)F)n1 (centres unmarked) [PIPE-791]
clinical score by day 24 (MOG-EAE mouse model [1]; 0.3 mg/kg oral once daily): 1.5
disease onset (MOG-EAE mouse model [1]; 0.3 mg/kg oral once daily): 14 days
peak clinical score (MOG-EAE mouse model [1]; 0.3 mg/kg oral once daily): 2.1
clinical score at study end (MOG-EAE mouse model [1]; 3 mg/kg oral once daily): 1.5
disease onset (MOG-EAE mouse model [1]; 3 mg/kg oral once daily): 14 days
peak clinical score (MOG-EAE mouse model [1]; 3 mg/kg oral once daily): 1.4
cumulative body weight (day 0 to 24) (MOG-EAE mouse model [1]; 0.3 and 3 mg/kg oral once daily): Significant increases
level of IBA1+ staining in spinal cord (MOG-EAE mouse model [2]): reduces IBA1^+ area; also recorded: significantly reduced
IC50 [3]: 4.5 nM

Reference: publication PMC11079064, “Discovery of a brain penetrant small molecule antagonist targeting LPA1 receptors to reduce neuroinflammation and promote remyelination in multiple sclerosis” (Scientific Reports, 2024)
